Measurements: EP1301480B1, “1,3-DISUBSTITUTED AND 1,3,3-TRISUBSTITUTED PYRROLIDINES AS HISTAMINE-3 RECEPTOR LIGANDS AND THEIR THERAPEUTIC APPLICATIONS” (ABBOTT LABORATORIES, priority 2000, dated 2002)

The compounds below were run against T1, histamine-3 receptor (Rattus norvegicus, UniProt Q9QYN8) (assay: Histamine-3 receptor binding: displacement of (3H)-N-α-methylhistamine from rat cortical membranes). Details: (3H)-N-α-methylhistamine (~0.6 nM), 30 minutes at 25 °C, pH 7.7, Cheng-Prusoff equation.
T1 construct: from tissue; host or cells: male Sprague-Dawley rat brain cortex membranes
Set-up: species or system male Sprague-Dawley rat
Experimental: Briefly, male Sprague-Dawley rat brain cortices were homogenized (1 g tissue/10 mL buffer) in 50 mM Tris-HCl/5 mM EDTA containing protease inhibitor cocktail (Calbiochem) using a polytron set at 20,500 rpm. Homogenates were centrifuged for 20 minutes at 40,000xg. The supernatant was decanted, and pellets were weighed. The pellet was resuspended by polytron homogenization in 40 mL 50 mM Tris-HCI/5 mM EDTA with protease inhibitors and centrifuged for 20 minutes at 40,000xg. […] Test compounds were dissolved in DMSO to provide a 20 mM solution, serially diluted and then added to the incubation mixtures prior to initiating the incubation assay by addition of the membranes. Thioperamide (3 µM) was used to determine nonspecific binding. Binding incubations were conducted for 30 minutes at 25 °C and terminated by addition of 2 mL of ice cold 50 mM Tris-HCl (pH 7.7) and filtration through 0.3% polyethylenimine-soaked Unifilter plates (Packard). These filters were washed 4 additional times with 2 mL of ice-cold 50 mM Tris-HCl and dried for 1 hour. Radioactivity was determined using liquid scintillation counting techniques. Results were analyzed by Hill transformation and Ki values were determined using the Cheng-Prusoff equation.

T1 sequence (Q9QYN8 whole entry): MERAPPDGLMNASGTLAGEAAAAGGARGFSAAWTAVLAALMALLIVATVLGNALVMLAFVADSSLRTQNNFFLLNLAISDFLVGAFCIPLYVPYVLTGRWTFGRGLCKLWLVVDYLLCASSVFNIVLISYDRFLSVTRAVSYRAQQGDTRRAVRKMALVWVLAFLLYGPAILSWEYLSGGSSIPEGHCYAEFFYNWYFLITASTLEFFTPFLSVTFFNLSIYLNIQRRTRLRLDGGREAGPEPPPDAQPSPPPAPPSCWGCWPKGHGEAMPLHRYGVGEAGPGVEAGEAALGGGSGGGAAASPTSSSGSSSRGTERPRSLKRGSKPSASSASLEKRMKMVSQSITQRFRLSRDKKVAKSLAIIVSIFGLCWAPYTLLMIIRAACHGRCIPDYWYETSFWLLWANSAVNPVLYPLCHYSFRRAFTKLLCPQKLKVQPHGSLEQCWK

| Compound | Ki [nM] |
| --- | --- |
| CC(=O)c1ccc(OCCCN2CCC(N3C(=O)NC(C(C)C)C3=O)C2)cc1 [Example 10, (5R)-3-{(3R)-1-[3-(4-acetylphenoxy)propyl]pyrrolidinyl}-5-isopropyl-2,4-imidazolidinedione] | 626 |
| CC(C)(C)OC(=O)NC1CCN(CCCOc2ccc(-c3ccc(C#N)cc3)cc2)C1 (centres unmarked) [Example 98, tert-butyl 1-{3-[(4'-cyano[1,1'-biphenyl]-4-yl)oxy]propyl}-3-pyrrolidinylcarbamate] | 90 |
| N#Cc1ccc(-c2ccc(OCCCN3CCC(=O)C3)cc2)cc1 [Example 154, 4'-[3-(3-oxo-1-pyrrolidinyl)propoxy][1,1'-biphenyl]-4-carbonitrile] | 63 |
| N#Cc1ccc(-c2ccc(OCCCN3CC[C@H](O)C3)cc2)cc1 [Example 155, 4'-{3-[(3S)-3-hydroxypyrrolidinyl]propoxy}[1,1'-biphenyl]-4-carbonitrile] | 105 |
| CC(C)C1(O)CCN(CCCOc2ccc(-c3ccc(C#N)cc3)cc2)C1 (centres unmarked) [Example 157] | 593 |
| N-{(3R)-1-[3-(4-acetylphenoxy)propyl]pyrrolidinyl}-4-(trifluoromethoxy)benzenesulfonamide [Example 73] | 6.4 |

Further compounds by falling Ki, results first:

| Ki [nM] | Compound |
| --- | --- |
| 45 | CC1(O)CCN(CCCOc2ccc(-c3ccc(C#N)cc3)cc2)C1 (centres unmarked) [Example 156, 4'-[3-(3-hydroxy-3-methyl-1-pyrrolidinyl)propoxy][1,1'-biphenyl]-4-carbonitrile] |
| 42 | N#Cc1ccc(-c2ccc(OCCCN3CC[C@@H](O)C3)cc2)cc1 [Example 153, 4'-{3-[(3R)-3-hydroxypyrrolidinyl]propoxy}[1,1'-biphenyl]-4-carbonitrile] |
| 31 | 1-(4-{3-[(3R)-3-aminopyrrolidinyl]propoxy}phenyl)-1-propanone [Example 7] |
| 22 | O=C(c1ccc(OCCCN2CCC(O)C2)cc1)C1CC1 (centres unmarked) [Example 151, cyclopropyl{4-[3-(3-hydroxy-1-pyrrolidinyl)propoxy]phenyl}methanone] |
| 15 | C[C@@]1(O)CCN(CCCOc2ccc(-c3ccc(C#N)cc3)cc2)C1 [Example 158, 4'-{3-[(3R)-3-hydroxy-3-methylpyrrolidinyl]propoxy}[1,1'-biphenyl]-4-carbonitrile] |
| 12 | CN(C)[C@@H]1CCN(CCCOc2ccc(-c3ccc(C#N)cc3)cc2)C1 [Example 108, 4'-{3-[(3R)-3-(dimethylamino)pyrrolidinyl]propoxy}[1,1'-biphenyl]-4-carbonitrile] |
| 8.7 | O=C(c1ccc(OCCCN2CC[C@@H](O)C2)cc1)C1CC1 [Example 152, cyclopropyl(4-{3-[(3R)-3-hydroxypyrrolidinyl]propoxy}phenyl)methanone] |
| 2.9 | N-((3R)-1-{3-[4-(cyclopropylcarbonyl)phenoxy]propyl}pyrrolidinyl)-4-isopropylbenzenesulfonamide [Example 67] |
